In patent US20100041089A1, “IMPROVED METHOD FOR DETECTING CHEMICAL […]” (priority 2006, published 2010):

Test system: yeast genes (expressed mRNA)
Assay: DNA chip measurement of expressed mRNA of yeast genes after culture with a toxic chemical substance
Type: cell-based, Saccharomyces cerevisiae S288C
Method: Yeast (Saccharomyces cerevisiae S288C (a SUC2mal mel gap2 CUP1)) were cultured at 25° C. on YPD medium (yeast extract 1%, polypeptone 2%, glucose 2%). One of toxic chemical substances was added to the cell at logarithmic growth phase, and the cell was further cultured for two hours. Cell was cultured without any chemical substance in the same condition, and was used as a control. Concentrations of the chemical substances were defined to inhibit the growth of the yeast but not lead to death.
After the completion of cultivation, the culture was centrifuged to collect the cells. To the cells, sodium acetate buffer (50 mM sodium acetate, 10 mM EDTA, 1% SDS) was added, and the mixture was shaken at 65° C. for five minutes, followed by returning to room temperature, and obtaining the supernatant, which procedure was repeated two times. To the supernatant, ½ amount of a solution of phenol/chloroform (1:1) was added, and the mixture was centrifuged to give a supernatant, an equal amount of chloroform was added, and the mixture was centrifuged to give a supernatant. To the supernatant, an equal amount of isopropanol containing 0.3 M sodium acetate was added, and the mixture was allowed to stand at room temperature for 30 minutes, after which the mixture was centrifuged to give sediment of the whole RNAs. Seventy % ethanol was added to the sediment, and the mixture was again centrifuged to give sediment, which was then dried and dissolved in water. mRNA was isolated from the whole RNAs as followings. In view of the fact that a poly A chain is attached to the 3′ terminus of mRNA, a polynucleotide having a poly T structure which was immobilized on the surface of latex beads was used to trap the mRNA, and then the mRNA was washed and eluted with spine column (Oligotex-dT30<Super>mRNA Purification Kit, Takara). Reverse transcription of the mRNA was conducted with a reverse transcriptase (Super Script II Reverse Transcriptase; catalogue No. 18064-014, GibcoBRL) using fluorescence-labeled nucleotides to give cDNAs that were introduced with Cy3-dUTP or Cy5-dUTP during the reverse transcription.
The labeled cDNAs were dissolved in TE buffer (10 mM Tris-HCl/1 mM EDTA, pH 8.0), and the solution was dropped on the DNA chip containing the whole genes of yeast (DNA Chip Research Inc. Japan) so that the cDNAs were hybridized on the DNA chip at 65° C. for over 12 hours. The fluoresces intensity of the DNA chip was read with a scanner, and the ratio relative to the fluorescence intensity resulting from the absence of chemical substance was estimated as the following, which is shown in Tables 1 to 9.
In the Tables, “Intensity” indicated in the rightmost column is a value of the level of expressed mRNA of each gene in control cells as divided by the average level of the expressions of the whole genes. A gene of which mRNA level is lower in control, and is higher in cases of addition of chemical substance, is especially useful in the detection of toxic substances.
Here, when a ratio of an amount of mRNA expressed in the presence of the chemical substance to an amount of mRNA expressed in the absence of the chemical substance is two or more, then it is considered significant.

Oc1cc(Cl)c(Cl)cc1Cl [(6), 2,4,5-Trichlorophenol]
The level of expressed mRNA in the presence of chemical substance/The level of expressed mRNA in the absence of chemical substance (yeast gene YNL092W, cultured two hours with substance): 1.2 | The level of expressed mRNA in the presence of chemical substance/The level of expressed mRNA in the absence of chemical substance (yeast gene YNL115C, cultured two hours with substance): 9.1 | The level of expressed mRNA in the presence of chemical substance/The level of expressed mRNA in the absence of chemical substance (yeast gene YNL156C, cultured two hours with substance): 1.3 | The level of expressed mRNA in the presence of chemical substance/The level of expressed mRNA in the absence of chemical substance (yeast gene YNL160W (stress protein genes)): 5.8 | The level of expressed mRNA in the presence of chemical substance/The level of expressed mRNA in the absence of chemical substance (yeast gene YNL190W, cultured two hours with substance): 0.5 | The level of expressed mRNA in the presence of chemical substance/The level of expressed mRNA in the absence of chemical substance (yeast gene YNL208W, cultured two hours with substance): 1.4 | The level of expressed mRNA in the presence of chemical substance/The level of expressed mRNA in the absence of chemical substance (yeast gene YNL234W, cultured two hours with substance): 1.3 | The level of expressed mRNA in the presence of chemical substance/The level of expressed mRNA in the absence of chemical substance (yeast gene YNL281W, cultured two hours with substance): 0.9 | The level of expressed mRNA in the presence of chemical substance/The level of expressed mRNA in the absence of chemical substance (yeast gene YNL300W, cultured two hours with substance): 0.4 | The level of expressed mRNA in the presence of chemical substance/The level of expressed mRNA in the absence of chemical substance (yeast gene YNL305C, cultured two hours with substance): 1.1 | The level of expressed mRNA in the presence of chemical substance/The level of expressed mRNA in the absence of chemical substance (yeast gene YNR064C, cultured two hours with substance): 2.1 | The level of expressed mRNA in the presence of chemical substance/The level of expressed mRNA in the absence of chemical substance (yeast gene YNR068C, cultured two hours with substance): 0.4 | The level of expressed mRNA in the presence of chemical substance/The level of expressed mRNA in the absence of chemical substance (yeast gene YOL032W, cultured two hours with substance): 2.1 | The level of expressed mRNA in the presence of chemical substance/The level of expressed mRNA in the absence of chemical substance (yeast gene YOL036W, cultured two hours with substance): 1.2 | The level of expressed mRNA in the presence of chemical substance/The level of expressed mRNA in the absence of chemical substance (yeast gene YOL047C, cultured two hours with substance): 1.5 | The level of expressed mRNA in the presence of chemical substance/The level of expressed mRNA in the absence of chemical substance (yeast gene YOL071W, cultured two hours with substance): 1.7 | The level of expressed mRNA in the presence of chemical substance/The level of expressed mRNA in the absence of chemical substance (yeast gene YOL082W, cultured two hours with substance): 1.8 | The level of expressed mRNA in the presence of chemical substance/The level of expressed mRNA in the absence of chemical substance (yeast gene YOL083W, cultured two hours with substance): 4.5 | The level of expressed mRNA in the presence of chemical substance/The level of expressed mRNA in the absence of chemical substance (yeast gene YOL117W, cultured two hours with substance): 2.0 | The level of expressed mRNA in the presence of chemical substance/The level of expressed mRNA in the absence of chemical substance (yeast gene YOL131W, cultured two hours with substance): 1.1 | The level of expressed mRNA in the presence of chemical substance/The level of expressed mRNA in the absence of chemical substance (yeast gene YOL150C, cultured two hours with substance): 5.2 | The level of expressed mRNA in the presence of chemical substance/The level of expressed mRNA in the absence of chemical substance (yeast gene YOL162W, cultured two hours with substance): 1.2 | The level of expressed mRNA in the presence of chemical substance/The level of expressed mRNA in the absence of chemical substance (yeast gene YOR019W, cultured two hours with substance): 1.3 | The level of expressed mRNA in the presence of chemical substance/The level of expressed mRNA in the absence of chemical substance (yeast gene YOR197W, cultured two hours with substance): 1.3 | The level of expressed mRNA in the presence of chemical substance/The level of expressed mRNA in the absence of chemical substance (yeast gene YOR248W, cultured two hours with substance): 0.2 | The level of expressed mRNA in the presence of chemical substance/The level of expressed mRNA in the absence of chemical substance (yeast gene YOR255W, cultured two hours with substance): 0.5 | The level of expressed mRNA in the presence of chemical substance/The level of expressed mRNA in the absence of chemical substance (yeast gene YOR382W, cultured two hours with substance): 13.1 | The level of expressed mRNA in the presence of chemical substance/The level of expressed mRNA in the absence of chemical substance (yeast gene YOR383C): 6.8 | The level of expressed mRNA in the presence of chemical substance/The level of expressed mRNA in the absence of chemical substance (yeast gene YPL052W, cultured two hours with substance): 1.9 | The level of expressed mRNA in the presence of chemical substance/The level of expressed mRNA in the absence of chemical substance (yeast gene YPL087W, cultured two hours with substance): 4.3 | The level of expressed mRNA in the presence of chemical substance/The level of expressed mRNA in the absence of chemical substance (yeast gene YPL196W, cultured two hours with substance): 2.0 | The level of expressed mRNA in the presence of chemical substance/The level of expressed mRNA in the absence of chemical substance (yeast gene YPL206C, cultured two hours with substance): 1.8 | The level of expressed mRNA in the presence of chemical substance/The level of expressed mRNA in the absence of chemical substance (yeast gene YPL222W, cultured two hours with substance): 2.2 | The level of expressed mRNA in the presence of chemical substance/The level of expressed mRNA in the absence of chemical substance (yeast gene YPR023C, cultured two hours with substance): 1.4 | The level of expressed mRNA in the presence of chemical substance/The level of expressed mRNA in the absence of chemical substance (yeast gene YPR079W, cultured two hours with substance): 1.0 | The level of expressed mRNA in the presence of chemical substance/The level of expressed mRNA in the absence of chemical substance (yeast gene YPR151C, cultured two hours with substance): 1.6
